Laboratory results taken from PubChem BioAssay AID256 (DTP/NCI, 2004).
“And” between values parts separate entries of the source, which are not always exact repeats. Identical values can stand only once. Inconclusive results and toxic doses are left out.

Test system: CD2F1 mice, L1210 leukemia ip, survival T/C
Assay: NCI In Vivo Anticancer Drug Screen. Data for tumor model L1210 Leukemia (intraperitoneal) in CD2F1 (CDF1) mice
Conditions: higher = longer survival
Procedure, shortened: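 Antitumor effect is scored in animals hosting a serially transplanted tumor. Values compare compound-dosed animals against vehicle-only controls as a simple quotient.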

[1] = endpoint: mean survival time, dose: 100.0 mg/kg/injection, schedule: Q01DX009 (ip), vehicle: saline with Tween-80
[2] = endpoint: mean survival time, dose: 200.0 mg/kg/injection, schedule: Q01DX009 (ip), vehicle: saline with Tween-80
[3] = endpoint: mean survival time, dose: 100.0 mg/kg/injection, schedule: Q01DX001 (ip), vehicle: saline with Tween-80
[4] = endpoint: mean survival time, dose: 200.0 mg/kg/injection, schedule: Q01DX001 (ip), vehicle: saline with Tween-80
[5] = endpoint: mean survival time, dose: 400.0 mg/kg/injection, schedule: Q01DX001 (ip), vehicle: saline with Tween-80
[6] = endpoint: mean survival time, dose: 100.0 mg/kg/injection, schedule: Q04DX002 (ip), vehicle: saline with Tween-80
[7] = endpoint: mean survival time, dose: 12.5 mg/kg/injection, schedule: Q01DX009 (ip), vehicle: saline with Tween-80
[8] = endpoint: mean survival time, dose: 25.0 mg/kg/injection, schedule: Q01DX009 (ip), vehicle: saline with Tween-80
[9] = endpoint: median survival time, dose: 25.0 mg/kg/injection, schedule: Q01DX009 (ip), vehicle: saline
[10] = endpoint: median survival time, dose: 100.0 mg/kg/injection, schedule: Q01DX009 (ip), vehicle: saline
[11] = endpoint: median survival time, dose: 200.0 mg/kg/injection, schedule: Q01DX009 (ip), vehicle: saline
[12] = endpoint: mean survival time, dose: 100.0 mg/kg/injection, schedule: Q04DX003 (ip), vehicle: saline with Tween-80
[13] = endpoint: mean survival time, dose: 200.0 mg/kg/injection, schedule: Q04DX003 (ip), vehicle: saline with Tween-80
[14] = endpoint: mean survival time, dose: 400.0 mg/kg/injection, schedule: Q04DX003 (ip), vehicle: saline with Tween-80
[15] = endpoint: mean survival time, dose: 12.5 mg/kg/injection, schedule: Q01DX005 (ip), vehicle: water
[16] = endpoint: mean survival time, dose: 25.0 mg/kg/injection, schedule: Q01DX005 (ip), vehicle: water
[17] = endpoint: mean survival time, dose: 50.0 mg/kg/injection, schedule: Q01DX005 (ip), vehicle: water
[18] = endpoint: mean survival time, dose: 100.0 mg/kg/injection, schedule: Q01DX005 (ip), vehicle: water
[19] = endpoint: mean survival time, dose: 200.0 mg/kg/injection, schedule: Q01DX005 (ip), vehicle: water

In the case of `CCCOC(=O)C(SCCN(C)C)c1ccccc1` (stereo unspecified), the T/C (endpoint: mean survival time, dose: 100.0 mg/kg/injection, schedule: Q01DX001 (ip), vehicle: saline) is reported as 102 % of control, the T/C (endpoint: mean survival time, dose: 100.0 mg/kg/injection, schedule: Q01DX009 (ip), vehicle: saline) is reported as 93 % of control and the T/C (endpoint: mean survival time, dose: 200.0 mg/kg/injection, schedule: Q01DX001 (ip), vehicle: saline) is reported as 97 % of control. For the same compound, the T/C (endpoint: mean survival time, dose: 200.0 mg/kg/injection, schedule: Q01DX009 (ip), vehicle: saline) was 100 % of control, the T/C (endpoint: mean survival time, dose: 400.0 mg/kg/injection, schedule: Q01DX001 (ip), vehicle: saline) was 94 % of control and the T/C (endpoint: mean survival time, dose: 400.0 mg/kg/injection, schedule: Q01DX009 (ip), vehicle: saline) was 98 % of control.
For `CCCCOC(N)=O`, the T/C [1] was 100 % of control, the T/C [2] was 105 % of control and the T/C (endpoint: mean survival time, dose: 400.0 mg/kg/injection, schedule: Q01DX009 (ip), vehicle: saline with Tween-80) was 97 % of control.
`O=C(Nc1ccc(Cl)c(C(F)(F)F)c1)Nc1c(Oc2ccc(Cl)c(Cl)c2)ccc(Cl)c1S(=O)(=O)O` was tested, and the T/C (endpoint: mean survival time, dose: 12.5 mg/kg/injection, schedule: Q01DX009 (ip), vehicle: saline) was 100 % of control, the T/C (endpoint: mean survival time, dose: 25.0 mg/kg/injection, schedule: Q01DX009 (ip), vehicle: saline) was 98 % of control and the T/C (endpoint: mean survival time, dose: 50.0 mg/kg/injection, schedule: Q01DX009 (ip), vehicle: saline) was 100 % of control.
For `CC(=O)OCC(OC(C)=O)C(OC(C)=O)C(OC(C)=O)C(OC(C)=O)C(=O)C=O` (stereo unspecified), the T/C (endpoint: mean survival time, dose: 50.0 mg/kg/injection, schedule: Q01DX009 (ip), vehicle: saline with Tween-80) was 101 % of control, the T/C [1] was 101 % of control and the T/C [2] was 109 % of control.
With `OCC1OC(n2cnc3c(NO)ncnc32)C(O)C1O` (stereo unspecified) the T/C (endpoint: mean survival time, dose: 12.5 mg/kg/injection, schedule: Q01DX009 (ip), vehicle: Klucel (hydroxypropylcellulose) (HPC)) was 87 % of control and 103 % of control, the T/C (endpoint: mean survival time, dose: 25.0 mg/kg/injection, schedule: Q01DX009 (ip), vehicle: Klucel (hydroxypropylcellulose) (HPC)) was 88 % of control and 104 % of control and the T/C (endpoint: mean survival time, dose: 50.0 mg/kg/injection, schedule: Q01DX009 (ip), vehicle: Klucel (hydroxypropylcellulose) (HPC)) was 92 % of control and 104 % of control. The T/C (endpoint: mean survival time, dose: 100.0 mg/kg/injection, schedule: Q01DX009 (ip), vehicle: Klucel (hydroxypropylcellulose) (HPC)) was 92 % of control and 104 % of control, the T/C (endpoint: mean survival time, dose: 200.0 mg/kg/injection, schedule: Q01DX009 (ip), vehicle: Klucel (hydroxypropylcellulose) (HPC)) was 92 % of control and 104 % of control and the T/C (endpoint: mean survival time, dose: 400.0 mg/kg/injection, schedule: Q01DX009 (ip), vehicle: Klucel (hydroxypropylcellulose) (HPC)) was 95 % of control and 107 % of control.
With `C=CCOC(c1ccc2c(c1)OCO2)C(C)Br` (stereo unspecified) the T/C [3] was 94 % of control, the T/C [4] was 94 % of control and the T/C [5] was 94 % of control.
With `COc1ccccc1NC(=O)Oc1c(C)cccc1C` the T/C [6] was 92 % of control, the T/C (endpoint: mean survival time, dose: 200.0 mg/kg/injection, schedule: Q04DX002 (ip), vehicle: saline with Tween-80) was 100 % of control and the T/C (endpoint: mean survival time, dose: 400.0 mg/kg/injection, schedule: Q04DX002 (ip), vehicle: saline with Tween-80) was 111 % of control.
`CC(=O)OCC1OC(N2C(=O)/C(=C/c3ccc([N+](=O)[O-])cc3)SC2=S)C(OC(C)=O)C(OC(C)=O)C1OC(C)=O` (stereo unspecified) was tested, and the T/C (endpoint: mean survival time, dose: 0.78 mg/kg/injection, schedule: Q01DX005 (ip), vehicle: distilled water + Tween-80) was 96 % of control, the T/C (endpoint: mean survival time, dose: 1.56 mg/kg/injection, schedule: Q01DX005 (ip), vehicle: distilled water + Tween-80) was 93 % of control and the T/C (endpoint: mean survival time, dose: 3.13 mg/kg/injection, schedule: Q01DX005 (ip), vehicle: distilled water + Tween-80) was 93 % of control. For the same compound, the T/C (endpoint: mean survival time, dose: 6.25 mg/kg/injection, schedule: Q01DX005 (ip), vehicle: distilled water + Tween-80) was 90 % of control and the T/C (endpoint: mean survival time, dose: 12.5 mg/kg/injection, schedule: Q01DX005 (ip), vehicle: distilled water + Tween-80) was 93 % of control.
In the case of `COCCC1(CN2c3ccccc3Sc3ccc(Cl)cc32)CCN(C)C1` (stereo unspecified), the T/C (endpoint: mean survival time, dose: 100.0 mg/kg/injection, schedule: Q04DX003 (ip), vehicle: saline) is reported as 102 % of control and the T/C (endpoint: mean survival time, dose: 200.0 mg/kg/injection, schedule: Q04DX003 (ip), vehicle: saline) is reported as 105 % of control.
For `C/C=C/C(=O)NCC(C(C)C)/[N+]([O-])=N/O` (stereo unspecified), the T/C (endpoint: mean survival time, dose: 6.25 mg/kg/injection, schedule: Q01DX009 (ip), vehicle: saline with Tween-80) was 94 % of control, the T/C [7] was 103 % of control and the T/C [8] was 94 % of control.
For `O=C1C2C3CCC(O3)C2C(=O)N1CO` (stereo unspecified), the T/C (endpoint: mean survival time, dose: 25.0 mg/kg/injection, schedule: Q04DX002 (ip), vehicle: saline with Tween-80) was 110 % of control, the T/C (endpoint: mean survival time, dose: 50.0 mg/kg/injection, schedule: Q04DX002 (ip), vehicle: saline with Tween-80) was 98 % of control and the T/C [6] was 91 % of control.
In the case of `CC1=NN(c2cccc(S(=O)(=O)O)c2)C(=O)C1N=Nc1cc(Cl)cc(S(=O)(=O)O)c1O.CC1=NN(c2cccc(S(=O)(=O)O)c2)C(=O)C1N=Nc1cc(Cl)cc(S(=O)(=O)O)c1O.[Cr]` (stereo unspecified), the T/C [9] is reported as 113 % of control, the T/C (endpoint: median survival time, dose: 50.0 mg/kg/injection, schedule: Q01DX009 (ip), vehicle: saline) is reported as 107 % of control and the T/C [10] is reported as 101 % of control. The T/C [11] was 118 % of control and the T/C (endpoint: median survival time, dose: 400.0 mg/kg/injection, schedule: Q01DX009 (ip), vehicle: saline) was 120 % of control.
For `CC1(C)C2CCC1(CS(=O)(=O)O)C(=O)C2.[Ag]` (stereo unspecified), the T/C (endpoint: mean survival time, dose: 100.0 mg/kg/injection, schedule: Q04DX003 (ip), vehicle: acetone) was 96 % of control.
In the case of `O=C(c1ccccc1)c1c[nH]c2ccccc12`, the T/C [12] is reported as 100 % of control, the T/C [13] is reported as 86 % of control and the T/C [14] is reported as 90 % of control.
With `Cn1cc(C2OC(CO)C(O)C2O)c(=O)[nH]c1=O` (stereo unspecified) the T/C [15] was 97 % of control, the T/C [16] was 103 % of control and the T/C [17] was 103 % of control. The T/C [18] was 100 % of control and the T/C [19] was 103 % of control.
In the case of `CC(C)C(C)OC(=O)Nc1cccc(O)c1` (stereo unspecified), the T/C [12] is reported as 99 % of control, the T/C [13] is reported as 97 % of control and the T/C [14] is reported as 97 % of control.
`c1cc[c]([Sn]([NH]c2ncnc3[nH]cnc23)([NH]c2ncnc3[nH]cnc23)[c]2ccccc2)cc1` was tested, and the T/C (endpoint: median survival time, dose: 12.5 mg/kg/injection, schedule: Q01DX009 (ip), vehicle: saline with Tween-80) was 102 % of control, the T/C (endpoint: median survival time, dose: 12.5 mg/kg/injection, schedule: Q01DX009 (ip), vehicle: suspension in saline) was 98 % of control and the T/C (endpoint: median survival time, dose: 25.0 mg/kg/injection, schedule: Q01DX009 (ip), vehicle: saline with Tween-80) was 113 % of control. For the same compound, the T/C [9] was 154 % of control, the T/C (endpoint: median survival time, dose: 25.0 mg/kg/injection, schedule: Q01DX009 (ip), vehicle: suspension in saline) was 100 % of control and the T/C (endpoint: median survival time, dose: 50.0 mg/kg/injection, schedule: Q01DX009 (ip), vehicle: saline with Tween-80) was 118 % of control. The T/C (endpoint: median survival time, dose: 50.0 mg/kg/injection, schedule: Q01DX009 (ip), vehicle: suspension in saline) was 102 % of control, the T/C (endpoint: median survival time, dose: 100.0 mg/kg/injection, schedule: Q01DX009 (ip), vehicle: saline with Tween-80) was 112 % of control and the T/C [10] was 166 % of control. For the same compound, the T/C (endpoint: median survival time, dose: 100.0 mg/kg/injection, schedule: Q01DX009 (ip), vehicle: suspension in saline) was 102 % of control, the T/C (endpoint: median survival time, dose: 200.0 mg/kg/injection, schedule: Q01DX009 (ip), vehicle: saline with Tween-80) was 86 % of control and the T/C [11] was 203 % of control. For the same compound, the T/C (endpoint: median survival time, dose: 200.0 mg/kg/injection, schedule: Q01DX009 (ip), vehicle: suspension in saline) was 112 % of control.
For `Cc1ccc(Cl)cc1NC(=O)c1c(Br)c(Br)c(Br)c(Br)c1C(=O)O`, the T/C [3] was 106 % of control, the T/C [4] was 110 % of control and the T/C [5] was 108 % of control.
`CC(=O)c1ccc2c(c1)Cc1cc(C(C)=O)ccc1-2` was tested, and the T/C (endpoint: mean survival time, dose: 100.0 mg/kg/injection, schedule: Q04DX003 (ip), vehicle: saline sonified) was 96 % of control, the T/C (endpoint: mean survival time, dose: 200.0 mg/kg/injection, schedule: Q04DX003 (ip), vehicle: saline sonified) was 93 % of control and the T/C (endpoint: mean survival time, dose: 400.0 mg/kg/injection, schedule: Q04DX003 (ip), vehicle: saline sonified) was 98 % of control.
For `Cc1ccc2[nH]c(=O)oc(=O)c2c1`, the T/C [12] was 104 % of control, the T/C [13] was 98 % of control and the T/C [14] was 106 % of control.
`NC(=O)OCC(O)C(O)C(N)C(=O)NC(C(=O)O)C1OC(n2ccc(=O)[nH]c2=O)C(O)C1O` (stereo unspecified) was tested, and the T/C [15] was 96 % of control, the T/C [16] was 103 % of control and the T/C [17] was 98 % of control. The T/C [18] was 101 % of control and the T/C [19] was 94 % of control.
In the case of `O=C(C=C(C(F)(F)F)C(F)(F)F)c1ccccc1Cl`, the T/C [7] is reported as 103 % of control and the T/C [8] is reported as 102 % of control.
